{"source": "patent US20200085864A1", "about": "“Stannous Fluoride Sugar Alcohol Solid Solutions” (WhiteHill Life Sciences, LLC, priority 2018, published 2020)", "details": "aqueous SnF2", "data": [{"smiles": "[F][Sn][F]", "note": "[Stannous fluoride]", "values": [{"measurement": "Natural pH of stannous fluoride", "result": "about 3.2"}]}]}
